According to ChEMBL document CHEMBL1201862, “PubChem BioAssay data set” (2004):
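Results reflect a 48-hour exposure of cells in 96-well plates to compound at five concentrations. GI50 is the concentration that inhibits growth by half.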 Calls of active or inactive are those of the source. Rule as the data show it: active = GI50 up to about 1.1 µM and inactive = higher.

What was measured:
Experiment in all cases: inhibition of tumour cell growth, NCI panel, 48 h
[1] = tested on: EKVX
[2] = tested on: BT-549
[3] = tested on: HCC 2998
[4] = tested on: HCT-15
[5] = tested on: Hs-578T
[6] = tested on: MCF7
[7] = tested on: U-251
[8] = tested on: MDA-MB-231
[9] = tested on: SK-MEL-28
[10] = tested on: UACC-257
[11] = tested on: LOX IMVI
[12] = tested on: T47D
[13] = tested on: KM12
[14] = tested on: NCI-H460
[15] = tested on: OVCAR-4
[16] = tested on: SW-620
[17] = tested on: CAKI-1
[18] = tested on: COLO 205
[19] = tested on: MOLT-4

SMILES	GI50 [1]	GI50 [2]	GI50 [3]	GI50 [4] [µM]	GI50 [5]	GI50 [6]	GI50 [7]	GI50 [8]	GI50 [9]	GI50 [10]	GI50 [11]	GI50 [12]	GI50 [13]	GI50 [14]	GI50 [15]	GI50 [16]	GI50 [17]	GI50 [18]	GI50 [19]
c1ccc2sc(SCCSc3nc4ccccc4s3)nc2c1	> 100 µM (inactive)	> 100 µM (inactive)	20.3 µM (inactive)	> 100	> 100 µM (inactive)	> 100 µM (inactive)	> 100 µM (inactive)	> 100 µM (inactive)	> 100 µM (inactive)	> 100 µM (inactive)	> 100 µM (inactive)	> 100 µM (inactive)	52.4 µM (inactive)	> 100 µM (inactive)	52.1 µM (inactive)	> 100 µM (inactive)	> 100 µM (inactive)		
CC(=O)Nc1ccc2c(C)c3c4ccccc4n(C)c3nc2n1	29 µM (inactive)	31.3 µM (inactive)	16.4 µM (inactive)	11.4	16.3 µM (inactive)	20.8 µM (inactive)		18.7 µM (inactive)		26.9 µM (inactive)	12.6 µM (inactive)	18.4 µM (inactive)	11.9 µM (inactive)	2.92 µM (inactive)		13.2 µM (inactive)	12.2 µM (inactive)	12.7 µM (inactive)	5.83 µM (inactive)
O=C1CCC(=O)N1CNc1ccc2c(c1)Sc1ccccc1O2	22 µM (inactive)	26.6 µM (inactive)		28.4	44.7 µM (inactive)	43.1 µM (inactive)	30.3 µM (inactive)	41.9 µM (inactive)	87.3 µM (inactive)	46.7 µM (inactive)	27.3 µM (inactive)	25.2 µM (inactive)	36.7 µM (inactive)		33.7 µM (inactive)	27.9 µM (inactive)	32.7 µM (inactive)	18 µM (inactive)	61.7 µM (inactive)
O=C(Nc1ccc(Cl)c(Cl)c1)C(=O)C(C1OC(=O)c2ccccc21)[N+](=O)[O-] (configuration not stated)	> 100 µM (inactive)	> 100 µM (inactive)	> 100 µM (inactive)	> 100	> 100 µM (inactive)	> 100 µM (inactive)	> 100 µM (inactive)	> 100 µM (inactive)	> 100 µM (inactive)	> 100 µM (inactive)	> 100 µM (inactive)	> 100 µM (inactive)	> 100 µM (inactive)	> 100 µM (inactive)	> 100 µM (inactive)	> 100 µM (inactive)	> 100 µM (inactive)	> 100 µM (inactive)	> 100 µM (inactive)
Cn1c(CO)ccc1-c1ccc(-c2ccc[se]2)[se]1	35.1 µM (inactive)	21.8 µM (inactive)	0.798 µM (active)	35.9	55 µM (inactive)	0.119 µM (active)		23.6 µM (inactive)	> 49.5 µM (inactive)		47.9 µM (inactive)	0.155 µM (active)	19.8 µM (inactive)	14.2 µM (inactive)	0.043 µM (active)	0.0959 µM (active)	< 0.01 µM (active)	3.46 µM (inactive)	19.6 µM (inactive)
O=C(c1ccccc1)N1N=C(C(F)(F)F)CC1(O)C(F)(F)F (configuration not stated)	> 100 µM (inactive)	> 100 µM (inactive)	> 100 µM (inactive)	> 100	> 100 µM (inactive)	> 100 µM (inactive)	> 100 µM (inactive)	> 100 µM (inactive)	> 100 µM (inactive)	> 100 µM (inactive)	> 100 µM (inactive)	> 100 µM (inactive)	> 100 µM (inactive)	> 100 µM (inactive)	> 100 µM (inactive)	> 100 µM (inactive)		> 100 µM (inactive)	> 100 µM (inactive)
O=C(c1ccc(Cl)c(Cl)c1)N(Cc1cccnc1)C(=S)N(Cc1cccnc1)C(=O)c1ccc(Cl)c(Cl)c1	40.6 µM (inactive)	22.9 µM (inactive)	20.5 µM (inactive)	20	40.6 µM (inactive)	7.06 µM (inactive)	29.3 µM (inactive)	33.1 µM (inactive)	52.5 µM (inactive)	24.9 µM (inactive)	30.7 µM (inactive)	26.7 µM (inactive)	28.1 µM (inactive)	44.7 µM (inactive)	25.8 µM (inactive)	29.2 µM (inactive)	31.6 µM (inactive)	15.6 µM (inactive)	37.3 µM (inactive)
OC(c1cc2ccccc2[nH]1)C1(c2cccnc2)SCCCS1 (configuration not stated)	21.2 µM (inactive)	57.9 µM (inactive)		84.7	41.3 µM (inactive)	39.5 µM (inactive)	47.1 µM (inactive)	23.1 µM (inactive)	> 100 µM (inactive)	52 µM (inactive)	79.4 µM (inactive)	69.7 µM (inactive)	26.7 µM (inactive)	94.6 µM (inactive)	48.8 µM (inactive)	90.6 µM (inactive)	> 100 µM (inactive)	61.4 µM (inactive)	27.9 µM (inactive)
OC(CC1CCCCN1)c1ccc2c(c1)oc1ccccc12 (configuration not stated)	49 µM (inactive)	> 100 µM (inactive)	30.4 µM (inactive)	52.2	87.7 µM (inactive)	83 µM (inactive)	> 100 µM (inactive)	> 100 µM (inactive)	34 µM (inactive)	31 µM (inactive)	56 µM (inactive)	> 100 µM (inactive)	> 100 µM (inactive)	43.6 µM (inactive)	94.2 µM (inactive)	> 100 µM (inactive)	52.8 µM (inactive)	19.1 µM (inactive)	28.2 µM (inactive)
OC(CCN1CCN(CCOC(c2ccc(F)cc2)c2ccc(F)cc2)CC1)c1ccc(Br)cc1 (configuration not stated)	5.15 µM (inactive)	5.83 µM (inactive)	1.97 µM (inactive)	2.74	4.89 µM (inactive)	3.37 µM (inactive)	4.11 µM (inactive)	5.74 µM (inactive)	2.69 µM (inactive)	1.96 µM (inactive)	2.04 µM (inactive)	3.05 µM (inactive)	2.44 µM (inactive)	2.42 µM (inactive)	4.01 µM (inactive)	4.67 µM (inactive)	2.02 µM (inactive)	1.85 µM (inactive)	2.4 µM (inactive)
CCn1sc2ccccc2c1=O	17.1 µM (inactive)	11.1 µM (inactive)	17.4 µM (inactive)	7.94	16.4 µM (inactive)	8.77 µM (inactive)	6 µM (inactive)	9.57 µM (inactive)	18.1 µM (inactive)	14.8 µM (inactive)	2.61 µM (inactive)	7.93 µM (inactive)	6.89 µM (inactive)	32.1 µM (inactive)	7.1 µM (inactive)	6.35 µM (inactive)	3.43 µM (inactive)	9.55 µM (inactive)	3.78 µM (inactive)
CCNC(=S)N/N=C(\C)c1cccc(C)n1	2.04 µM (inactive)	31.5 µM (inactive)	3.13 µM (inactive)	7.18	> 100 µM (inactive)	3.32 µM (inactive)	7.43 µM (inactive)	7.36 µM (inactive)	22.3 µM (inactive)	5.2 µM (inactive)	18.6 µM (inactive)	0.643 µM (active)	20.3 µM (inactive)	6.01 µM (inactive)		18.6 µM (inactive)		0.748 µM (active)	0.631 µM (active)
Cc1ccccc1NC(=O)/C(C#N)=N\Nc1[nH]cnc1C(N)=O	66.8 µM (inactive)	> 100 µM (inactive)	2.92 µM (inactive)	19.3	24.3 µM (inactive)	21.6 µM (inactive)	37.1 µM (inactive)	7.46 µM (inactive)	28.7 µM (inactive)	15.2 µM (inactive)		25.9 µM (inactive)	28.6 µM (inactive)	9.33 µM (inactive)	34.1 µM (inactive)	2.89 µM (inactive)	2.59 µM (inactive)	21.9 µM (inactive)	2.88 µM (inactive)
Cc1ccc(C)c(COCCOCn2cc(Br)c(N)nc2=O)c1	> 100 µM (inactive)	> 100 µM (inactive)	> 100 µM (inactive)	> 100	> 100 µM (inactive)	> 100 µM (inactive)	> 100 µM (inactive)	> 100 µM (inactive)	> 100 µM (inactive)	> 100 µM (inactive)	> 100 µM (inactive)	> 100 µM (inactive)	> 100 µM (inactive)	> 100 µM (inactive)		> 100 µM (inactive)	> 100 µM (inactive)	> 100 µM (inactive)	> 100 µM (inactive)
CC(O)C1(CNc2cc(Cl)nc(N)n2)CC(CCc2ccccc2)C1 (configuration not stated)	10.2 µM (inactive)	15.9 µM (inactive)		11.6	17.3 µM (inactive)	0.108 µM (active)	14.5 µM (inactive)	10.7 µM (inactive)	14.3 µM (inactive)	4.56 µM (inactive)	3.92 µM (inactive)	3.42 µM (inactive)	14.5 µM (inactive)	14 µM (inactive)	10.2 µM (inactive)	15.8 µM (inactive)	11 µM (inactive)	15.5 µM (inactive)	11.6 µM (inactive)
CC(Br)C(=O)Nc1ccc(C(=O)O)c(O)c1 (configuration not stated)	> 100 µM (inactive)	37.2 µM (inactive)		> 100	33.4 µM (inactive)	83.4 µM (inactive)	23.2 µM (inactive)	68.2 µM (inactive)	47.4 µM (inactive)	42.4 µM (inactive)	34.5 µM (inactive)	> 100 µM (inactive)	70.8 µM (inactive)	> 100 µM (inactive)	45.4 µM (inactive)	60.8 µM (inactive)	> 100 µM (inactive)	> 100 µM (inactive)	36.1 µM (inactive)
